This is an account of results in US20220380801A1, “TRIPARTITE SYSTEMS FOR PROTEIN DIMERIZATION AND METHODS OF USE” (priority 2019, published 2022).

This test relates to mutant HCV PR: simeprevir: PRSIM_23 complex. The test can be described thus: HTRF disruption of pre-formed mutant complexes. The conditions noted are these: mutation at position 136. It counts as binding, Hepatitis C virus subtype 1a. As to the method:
Methods of determining whether the competing small molecule is capable of binding to the target protein in the T-SM complex and displacing the small molecule from the T-SM complex include assays where a pre-formed tripartiate complex is generated and the ability of the binding member to bind the T-SM complex is measured (e.g. by a homogeneous time-resolved florescence (HTFR) binding assay) as increasing concentrations of the competing small molecule are added. A competing small molecule may be capable to displaying the small molecule from the T-SM complex if it is capable of inhibiting binding of inhibiting the binding member from binding the T-SM complex by at least 50%, by at least 75%, by at least 80%, by at least 85%, by at least 90%, or by at least 95% when measured using the HTFR binding assay. In some embodiments, the competing small molecule is asunaprevir, paritaprevir, vaniprevir, grazoprevir, danoprevir or glecaprevir. The binding member, target protein and small molecule using in the method may be as further defined herein in relation to other aspects of the disclosure.
To further characterise the mutations made to the HCV NS3/4A PR, we investigated whether the small molecules were able to disrupt pre-formed mutant HCV PR: simeprevir: PRSIM_23 complexes. […] The degree of inhibition is dependent on the specific mutation made.
(In general: In TR-FRET formats the signal depends on donor and acceptor labels being close together.)

Turning to `C=C[C@@H]1C[C@]1(NC(=O)[C@@H]1C[C@@H](Oc2ncc(OC)c3ccc(Cl)cc23)CN1C(=O)[C@@H](NC(=O)OC(C)(C)C)C(C)(C)C)C(=O)NS(=O)(=O)C1CC1` [asunaprevir], the “inhibition of pre-formed mutant complex” value was “more pronounced inhibition”.

With `CC(C)(C)OC(=O)N[C@H]1CCCCC/C=C\[C@@H]2C[C@@]2(C(=O)NS(=O)(=O)C2CC2)NC(=O)[C@@H]2C[C@@H](OC(=O)N3Cc4cccc(F)c4C3)CN2C1=O` [danoprevir], the “inhibition of pre-formed mutant complex” value is recorded as “more pronounced inhibition”.

Take `CC(C)(C)[C@@H]1NC(=O)O[C@@H]2CCC[C@H]2OC/C=C/C(F)(F)c2nc3ccccc3nc2O[C@@H]2C[C@@H](C(=O)N[C@]3(C(=O)NS(=O)(=O)C4(C)CC4)C[C@H]3C(F)F)N(C2)C1=O` [glecaprevir]: the “inhibition of pre-formed mutant complex” value is recorded as “more pronounced inhibition”.

With `C=C[C@@H]1C[C@]1(NC(=O)[C@@H]1C[C@@H]2CN1C(=O)[C@H](C(C)(C)C)NC(=O)O[C@@H]1C[C@H]1CCCCCc1nc3ccc(OC)cc3nc1O2)C(=O)NS(=O)(=O)C1CC1.O` [grazoprevir], the “inhibition of pre-formed mutant complex” value is “more pronounced inhibition”.

Consider `Cc1cnc(C(=O)N[C@H]2CCCCC/C=C\[C@@H]3C[C@@]3(C(=O)NS(=O)(=O)C3CC3)NC(=O)[C@@H]3C[C@@H](Oc4nc5ccccc5c5ccccc45)CN3C2=O)cn1` [paritaprevir], for which the “inhibition of pre-formed mutant complex” value is listed as “more pronounced inhibition”.

Consider `CC[C@@H]1C[C@]1(NC(=O)[C@@H]1C[C@@H]2CN1C(=O)[C@H](C(C)(C)C)NC(=O)OCC(C)(C)CCCCc1cccc3c1CN(C3)C(=O)O2)C(=O)NS(=O)(=O)C1CC1` [vaniprevir], for which the “inhibition of pre-formed mutant complex” value is given as “more pronounced inhibition”.
